Test results published in the NIST ThermoML archive (doi:10.1021/je0500025).
Structures can show the parent of a compound that is named as a salt. Numbers after ± are expanded uncertainties.

Key:
[1] = 101 kPa, Liquid
[2] = xn = mol fraction of the nth substance listed; conditions: 101 kPa, Liquid

mass density ([1]; 293.15 K) [kg/m3]	viscosity ([1]; 293.15 K) [mPa·s]	mass density ([1]; 303.15 K) [kg/m3]	viscosity ([1]; 303.15 K) [mPa·s]	mass density ([1]; 313.15 K) [kg/m3]	viscosity ([1]; 313.15 K) [mPa·s]	mass density ([2]; 293.15 K, x1 = 1) [kg/m3]	viscosity ([2]; 293.15 K, x1 = 1) [mPa·s]	mass density ([2]; 303.15 K, x1 = 1) [kg/m3]	viscosity ([2]; 303.15 K, x1 = 1) [mPa·s]	mass density ([2]; 313.15 K, x1 = 1) [kg/m3]	viscosity ([2]; 313.15 K, x1 = 1) [mPa·s]	SMILES	mass density ([2]; 293.15 K, x2 = 0) [kg/m3]	viscosity ([2]; 293.15 K, x2 = 0) [mPa·s]	mass density ([2]; 303.15 K, x2 = 0) [kg/m3]	viscosity ([2]; 303.15 K, x2 = 0) [mPa·s]	mass density ([2]; 313.15 K, x2 = 0) [kg/m3]	viscosity ([2]; 313.15 K, x2 = 0) [mPa·s]
897.84 ± 3	0.901 ± 0.029	891.78 ± 3.1	0.77 ± 0.025	884.35 ± 3.2	0.666 ± 0.021	–	–	–	–	–	–	CCC/C=C/COC(C)=O [(E)-2-hexenyl acetate]	–	–	–	–	–	–
–	–	–	–	–	–	897.84 ± 3	0.901 ± 0.029	891.78 ± 3.1	0.77 ± 0.025	884.35 ± 3.2	0.666 ± 0.021	CCC/C=C/COC(C)=O [(E)-2-hexenyl acetate] + CCO	–	–	–	–	–	–
900.82 ± 2.9	0.893 ± 0.028	893.14 ± 3	0.763 ± 0.024	886.19 ± 3.2	0.66 ± 0.021	–	–	–	–	–	–	CC/C=C\CCOC(C)=O [(Z)-3-hexenyl acetate]	–	–	–	–	–	–
–	–	–	–	–	–	900.82 ± 2.9	0.893 ± 0.028	893.14 ± 3	0.763 ± 0.024	886.19 ± 3.2	0.66 ± 0.021	CC/C=C\CCOC(C)=O [(Z)-3-hexenyl acetate] + CCO	–	–	–	–	–	–
909.15 ± 3	0.599 ± 0.021	906.6 ± 3	0.527 ± 0.019	903.17 ± 3.1	0.469 ± 0.017	–	–	–	–	–	–	CC/C=C\CCOC=O [(Z)-3-hexenyl formate]	–	–	–	–	–	–
–	–	–	–	–	–	909.15 ± 3	0.599 ± 0.021	906.6 ± 3	0.527 ± 0.019	903.17 ± 3.1	0.469 ± 0.017	CC/C=C\CCOC=O [(Z)-3-hexenyl formate] + CCO	–	–	–	–	–	–
–	–	–	–	–	–	–	–	–	–	–	–	CCO [ethanol] + CC/C=C\CCOC(C)=O	788.24 ± 4.7	1.16 ± 0.037	780.73 ± 4.8	0.968 ± 0.031	771.98 ± 5	0.81 ± 0.026
–	–	–	–	–	–	–	–	–	–	–	–	CCO [ethanol] + CC/C=C\CCOC=O	788.24 ± 4.7	1.16 ± 0.037	780.73 ± 4.8	0.968 ± 0.031	771.98 ± 5	0.81 ± 0.026
–	–	–	–	–	–	–	–	–	–	–	–	CCO [ethanol] + CCC/C=C/COC(C)=O	788.24 ± 4.7	1.16 ± 0.037	780.73 ± 4.8	0.968 ± 0.031	771.98 ± 5	0.81 ± 0.026
–	–	–	–	–	–	–	–	–	–	–	–	CCO [ethanol] + CCCCOC(C)=O	788.24 ± 4.7	1.16 ± 0.037	780.73 ± 4.8	0.968 ± 0.031	771.98 ± 5	0.81 ± 0.026

SMILES	mass density ([1]; 293.15 K) [kg/m3]	viscosity ([1]; 293.15 K) [mPa·s]	mass density ([1]; 303.15 K) [kg/m3]	viscosity ([1]; 303.15 K) [mPa·s]	mass density ([1]; 313.15 K) [kg/m3]	viscosity ([1]; 313.15 K) [mPa·s]	mass density ([2]; 293.15 K, x1 = 1) [kg/m3]	viscosity ([2]; 293.15 K, x1 = 1) [mPa·s]	mass density ([2]; 303.15 K, x1 = 1) [kg/m3]	viscosity ([2]; 303.15 K, x1 = 1) [mPa·s]	mass density ([2]; 313.15 K, x1 = 1) [kg/m3]	viscosity ([2]; 313.15 K, x1 = 1) [mPa·s]	mass density ([2]; 293.15 K, x2 = 0) [kg/m3]	viscosity ([2]; 293.15 K, x2 = 0) [mPa·s]	mass density ([2]; 303.15 K, x2 = 0) [kg/m3]	viscosity ([2]; 303.15 K, x2 = 0) [mPa·s]	mass density ([2]; 313.15 K, x2 = 0) [kg/m3]	viscosity ([2]; 313.15 K, x2 = 0) [mPa·s]
CCCCOC(C)=O [butyl ethanoate]	881.04 ± 3.2	0.732 ± 0.023	871.3 ± 3.4	0.628 ± 0.02	861.84 ± 3.5	0.546 ± 0.018	–	–	–	–	–	–	–	–	–	–	–	–
CCCCOC(C)=O [butyl ethanoate] + CCO	–	–	–	–	–	–	881.04 ± 3.2	0.732 ± 0.023	871.3 ± 3.4	0.628 ± 0.02	861.84 ± 3.5	0.546 ± 0.018	–	–	–	–	–	–
CCO [ethanol]	788.24 ± 4.7	1.16 ± 0.037	780.73 ± 4.8	0.968 ± 0.031	771.98 ± 5	0.81 ± 0.026	–	–	–	–	–	–	–	–	–	–	–	–
